Results from US20060079453A1, “Hla binding peptides and their uses” (priority 2002, published 2006).
Like-named read-outs stand apart in the source and are kept apart here. No end group written: not given here.

Experiments:
Test in all cases: biochemical
Assay type in all cases: binding
[1] = molecular target: HLA-DR DRB1*1101 (DR11) (Homo sapiens, UniProt P01903+P01911, A100R/A169T/A87E/I96F/K41T/L162R/M171V/P40S/Q125H/Q178H/Q39Y/Q99D/R42S/S66Y/T262R/V115G/W38E)
[2] = molecular target: HLA-DR DRB1*1302 (DR13) (Homo sapiens, UniProt P01903+P01911, A100E/A169T/K41T/L162R/M171V/P40S/Q125H/Q178H/Q39Y/Q99D/R42S/S66N/T262R/V115G/W38E/Y61H)
Chain of HLA-DR DRB1*1302 (DR13) (P01903 26-254 limits assumed, other chains not shown): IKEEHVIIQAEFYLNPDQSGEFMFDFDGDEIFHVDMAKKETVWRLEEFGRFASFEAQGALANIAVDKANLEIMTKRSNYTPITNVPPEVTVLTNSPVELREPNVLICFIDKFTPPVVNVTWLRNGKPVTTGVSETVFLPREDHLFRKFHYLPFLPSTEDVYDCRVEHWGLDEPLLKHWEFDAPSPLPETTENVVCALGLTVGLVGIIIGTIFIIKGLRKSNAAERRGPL

[3] = molecular target: HLA-DR DRB1*1501 (DR15) (Homo sapiens, UniProt P01903+P01911)
[4] = molecular target: HLA-DR DRB3*0101 (DR52) (Homo sapiens, UniProt P01903+P79483)
[5] = molecular target: HLA-DR DRB4*0101 (DR53) (Homo sapiens, UniProt P01903+P13762, G164S)
[6] = molecular target: HLA-DR DRB5*0101 (DR51) (Homo sapiens, UniProt P01903+Q30154)
[7] = molecular target: HLA-DR DRB1*0101 (DR1) (Homo sapiens, UniProt P01903+P01911, A100R/D57E/F55L/F60I/F76Y/I96L/L162R/M171V/P40L/Q125E/R42F/V115G/Y59C)
[8] = molecular target: HLA-DR DRB1*0301 (DR3) (Homo sapiens, UniProt P01903+P01911, A100K/A102G/A103R/A169T/F55Y/I96L/K41T/L162R/M171V/P40S/Q125H/Q178H/Q39Y/R42S/S66N/T106N/T262R/W38E/Y61H)
Chain of HLA-DR DRB1*0301 (DR3) (P01903 26-254 limits assumed, other chains not shown): as above

[9] = molecular target: HLA-DR DRB1*0701 (DR7) (Homo sapiens, UniProt P01903+P01911, A100R/A102G/A103Q/D57E/D86V/E43K/F76Y/K127E/L162R/M171V/P40G/Q125H/Q99D/R33Q/R42Y/R54Q/S133A/S66F/T210M/V115G/Y107V/Y59L/Y89S)
[10] = molecular target: HLA-DR DRB1*0401 (DR4) (Homo sapiens, UniProt P01903+P01911, A100K/A169T/F76Y/I96L/K127E/L162R/M171V/N62H/P40V/Q125Y/R42H/S133A/S149N/S66Y/V115G/V209L/W38E); conditions: DRB1 *0401

Chain of HLA-DR DRB1*1101 (DR11) (P01903 26-254 limits assumed, other chains not shown): as above

Row | Molecule | IC50 [8] [µM] | IC50 ([9]; DRB1 *0701) [µM] | IC50 ([1]; DRB1 *1101) [µM] | IC50 [4] [µM] | IC50 ([6]; DRB5 *0101) [µM] | IC50 [10] [µM] | IC50 ([5]; DRB4 *0101) [µM] | further results
1 | TLERPKTLSPGKNGV | – | – | – | – | – | – | – | IC50 ([1]; read-out: DRB1 *1101): > 52.6 µM; IC50 ([2]; read-out: DRBI *1302): 0.835 µM; IC50 ([3]; read-out: DRBI *1501): 23.3 µM; IC50 ([4]; read-out: DRB3 *0101): > 263 µM; IC50 ([5]; read-out: DRB4 *0101): 25.7 µM; IC50 ([6]; read-out: DRB5 *0101): 11.3 µM
2 | C[C@@H](O)[C@H](NC(=O)[C@H](CCCCN)NC(=O)[C@H](CCC(=O)O)NC(=O)[C@H](CCC(=O)O)NC(=O)CNC(=O)[C@H](Cc1ccccc1)NC(=O)[C@H](CCCNC(=N)N)NC(=O)[C@H](Cc1ccccc1)NC(=O)[C@H](CO)NC(=O)[C@H](CCC(=O)O)NC(=O)[C@H](CCC(=O)O)NC(=O)[C@@H]1CCCN1C(=O)[C@@H]1CCCN1)C(=O)N[C@H](C(=O)N1CCC[C@H]1C(=O)N[C@@H](CO)C(=O)O)[C@@H](C)O | > 900 | > 12.5 | > 10 | > 14.3 | > 2.86 | – | – | IC50 ([7]; DRB1 *0101): > 2.5 µM
3 | CSCC[C@H](NC(=O)[C@@H]1CCCN1C(=O)[C@H](CC(=O)O)NC(=O)[C@@H](N)Cc1ccc(O)cc1)C(=O)N[C@@H](Cc1ccccc1)C(=O)N[C@@H](CCCCN)C(=O)N[C@@H](Cc1ccc(O)cc1)C(=O)N[C@@H](Cc1c[nH]cn1)C(=O)N[C@@H](CC(C)C)C(=O)N[C@H](C(=O)N[C@H](C(=O)N[C@@H](C)C(=O)N[C@@H](CCC(N)=O)C(=O)N[C@H](C(=O)N[C@@H](CCCNC(=N)N)C(=O)O)C(C)C)C(C)C)[C@@H](C)O | > 75 | 0.158 | 0.252 | 8.14 | 0.062 | 0.019 | 0.553 | IC50 ([7]; DRB1 *0101): 0.009 µM; IC50 ([2]; DRBI *1302): 1.01 µM; IC50 ([3]; DRBI *1501): 1.35 µM
4 | VRVEILRNFYVINRL | – | – | – | – | – | – | – | IC50 ([1]; read-out: DRB1 *1101): 0.504 µM; IC50 ([2]; read-out: DRBI *1302): 0.0058 µM; IC50 ([3]; read-out: DRBI *1501): 0.00104 µM; IC50 ([4]; read-out: DRB3 *0101): 80.4 µM; IC50 ([5]; read-out: DRB4 *0101): 0.187 µM; IC50 ([6]; read-out: DRB5 *0101): 0.485 µM
5 | SAAPLRTITADTFRK [SAAPLRT1TADTFRK] | – | – | 3.88 | 2.11 | 0.045 | – | 0.017 | IC50 ([2]; DRBI *1302): 0.809 µM; IC50 ([3]; DRBI *1501): 0.858 µM
6 | TAEYGDKWLDAKSTWYGKPT | > 30 | 3.13 | – | > 20 | – | > 0.667 | 10 | –
7 | CC[C@H](C)[C@H](NC(=O)[C@@H](NC(=O)[C@@H]1CCCN1C(=O)CN)C(C)C)C(=O)N1CCC[C@H]1C(=O)N[C@@H](CCC(N)=O)C(=O)N[C@@H](CC(=O)O)C(=O)N[C@@H](Cc1c[nH]c2ccccc12)C(=O)N[C@@H](CO)C(=O)N[C@H](C(=O)N[C@@H](CCC(=O)O)C(=O)N[C@@H](CS)C(=O)N[C@@H](CCSC)C(=O)N[C@H](C(=O)N[C@H](C(=O)O)[C@@H](C)O)[C@@H](C)O)[C@@H](C)O | 52.1 | – | – | 20.3 | – | – | 0.961 | –
8 | VRYTTEGGTKSEVEDVIPEG | > 30 | > 12.5 | – | > 25 | – | > 0.667 | – | –
9 | AATYNFAVLKLMGRGTKF | > 52.9 | – | 0.017 | 70 | 0.018 | – | 1.22 | –
10 | GMLPVCPLIPGSSTTSTGP | > 900 | – | 2.5 | > 25 | – | 0.4 | – | –
11 | GAPLGGALRALAHGV | > 486 | – | – | > 51.1 | – | 15 | – | IC50 [7]: 0.068 µM; IC50 [9]: 1.42 µM; IC50 [1]: 0.083 µM; IC50 [2]: 0.34 µM; IC50 [3]: 2.07 µM; IC50 [5]: 4.89 µM; IC50 [6]: 5.4 µM
12 | VGGVYLLPRRGPRIGV | – | – | – | – | – | – | – | IC50 ([1]; read-out: DRB1 *1101): 0.088 µM; IC50 ([2]; read-out: DRBI *1302): > 15.4 µM; IC50 ([3]; read-out: DRBI *1501): 0.0042 µM; IC50 ([4]; read-out: DRB3 *0101): 60.8 µM; IC50 ([5]; read-out: DRB4 *0101): 19.2 µM; IC50 ([6]; read-out: DRB5 *0101): 0.012 µM
13 | CSCC[C@H](NC(=O)[C@@H](N)Cc1c[nH]c2ccccc12)C(=O)N[C@@H](Cc1ccc(O)cc1)C(=O)N[C@@H](Cc1ccc(O)cc1)C(=O)N[C@@H](Cc1c[nH]cn1)C(=O)NCC(=O)N[C@@H](CCC(N)=O)C(=O)N[C@@H](CCCNC(=N)N)C(=O)N[C@@H](Cc1c[nH]cn1)C(=O)N[C@@H](CO)C(=O)N[C@@H](CC(=O)O)C(=O)N[C@@H](CCC(=O)O)C(=O)N[C@@H](Cc1c[nH]cn1)C(=O)N[C@@H](Cc1c[nH]cn1)C(=O)N[C@@H](Cc1c[nH]cn1)C(=O)O | > 900 | > 250 | > 10 | > 7.69 | > 5 | – | – | IC50 ([7]; DRB1 *0101): ≥ 50 µM
14 | QKGRGYRGQHQAHSLERVCH | > 47.4 | – | 30.2 | > 500 | 9.76 | 0.088 | 18 | IC50 ([3]; DRBI *1501): > 9.1 µM
